The text below walks through data of patent US20070254894A1, “Novel small molecules with selective cytotoxicity against human microvascular endothelial cell proliferation” (priority 2006, published 2007).

Counter-ions that a name gives are not always drawn. Like-named read-outs stand apart in the source and are kept apart here.

In data set [1] the test system is HMVEC cells stimulated with VEGF 165. Kind of data set: VEGF driven HMVEC proliferation screen. It counts as cell-based. The method, then: (§1) HMVEC cells were plated on collagen-coated plates at 2500 cells/well for 24 hours. Various concentrations of test compounds were then added to duplicate plates. […] Anti-FGF antibody (final concentration of 5 μg/mL) was added to four control wells as a standard inhibitor. At the same time the compounds were added, a T-zero plate was generated (Alamar blue was added to a plate and read after three hours). The plates with the compounds were incubated for one hour at 37° C., 5% carbon dioxide. At this point, b-FGF was added (final concentration of 2.5 ng/mL). Tween-20 (10 μL) was added to four additional control wells to represent total death and the plates were returned to the carbon dioxide incubator for 6 days.
The assay was run identically using VEGF in place of b-FGF. The final concentration of VEGF 165, in this mode, was 10 ng/mL. The control inhibitor was anti-VEGF antibody (final concentration of […]). All other conditions were the same.

Data set [2] has as its system HMVEC cells stimulated with b-FGF. Briefly: b-FGF driven HMVEC proliferation screen. Type of data set: cell-based. The method, then:
as §1

A short description of data set [3]: in vitro. Particulars: human, primary human dermal fibroblasts, D. Fibroblast LC50, 6 days, Alamar blue. The method, then:
(§2) In parallel with the VEGF and FGF screens, a normal cell toxicity assay was run. Primary Human Dermal Fibroblasts (Clonetics) were plated at 5000 cells/well. After 24 hours various concentrations of test compounds, were added in duplicate plates and 10% Tween-20 was added to four control wells to represent total death. At the same time a T-zero plate was generated. The plates were returned to the carbon dioxide incubator and on day 6 Alamar blue was added and the plates read after 3 hours.
(§3) Using a T-zero plate allows the observation of compounds that cause the cells to become static as well as inhibit growth.
(In general: Alamar Blue is a resazurin reagent that responds to reducing activity.)

Data set [4] concerns Primary Human Dermal Fibroblasts. Kind of data set: in vitro. Particulars: read-out: D. Fibroblast LC50, 6 days, Alamar blue. The method, then: as §2, §3
The mark [5] stands for this setting: Homo sapiens, HMVEC, 144 h, VEGF 165 10 ng/mL, 6 days, Alamar blue, read-out: VEGF LC50.
Where [6] appears, read: Homo sapiens, HMVEC, 144 h, b-FGF 2.5 ng/mL, 6 days, Alamar blue, read-out: b-FGF LC50.
Setting [7] is: VEGF 165 10 ng/mL, 6 days, Alamar blue, read-out: VEGF LC50.
Setting [8] is: b-FGF 2.5 ng/mL, 6 days, Alamar blue, read-out: b-FGF LC50.

As for `Cc1cc(NC(=O)c2ccccn2)c2ncccc2c1Br` [Compound 16, pyridine-2-carboxylic acid (5-bromo-6-methyl-quinolin-8-yl)-amide], the CC50 in data set [1] (setting [5]) and in data set [2] (setting [6]) was 380 nM each time. This compound showed a CC50 at 6 days in data set [3] greater than 10000 nM.
With `O=C(Nc1cccc2cccnc12)c1cc(Cl)ccn1` [Compound 22, 4-chloropyridine-2-carboxylic acid quinolin-8-ylamide], the figures for the CC50 in data set [1] (setting [5]) and in data set [2] (setting [6]) were 100 nM and 130 nM, respectively. The compound also displayed a CC50 at 6 days in data set [3] greater than 10000 nM.
The like results for `O=C(Nc1cccc2cccnc12)c1cc(Sc2ccccc2)ccn1` [Compound 31, 4-phenylsulfanylpyridine-2-carboxylic acid quinolin-8-ylamide] were, in that order, 170 nM, 150 nM and greater than 10000 nM.
For `O=C(Nc1cccc2cccnc12)c1cc(Oc2ccccc2)ccn1` [Compound 32, 4-phenoxypyridine-2-carboxylic acid quinolin-8-ylamide], in that order: 1100 nM, 1800 nM and greater than 10000 nM.
As for `O=C(Nc1cccc2cccnc12)c1cc(N2CCC(N3CCCC3)CC2)ccn1` [Compound 42], the CC50 in data set [1] (setting [7]) turned out to be 42 nM; in data set [2] (setting [8]), 33 nM; in data set [4], 3600 nM.
As to `O=C(Nc1cccc2cccnc12)c1cc(N2CCCCC2)ccn1` [Compound 43], the CC50 in data set [1] (setting [7]) was 400 nM; in data set [2] (setting [8]), 220 nM; in data set [4], greater than 10000 nM.
Consider `O=C(Nc1cccc2cccnc12)c1cc(N2CCSCC2)ccn1` [Compound 44], for which the CC50 was 180 nM in data set [1] (setting [7]), 250 nM in data set [2] (setting [8]) and greater than 10000 nM in data set [4].
For `O=C(Nc1cccc2cccnc12)c1cc(SCc2ccccc2)ccn1` [Compound 45], the CC50 in data set [1] (setting [7]) is 61 nM; in data set [2] (setting [8]) it was 190 nM; in data set [4] it was greater than 10000 nM.
For the compound `O=C(Nc1cccc2cccnc12)c1ncccc1O` [Compound 46], the figures for the CC50 in data set [1], in data set [2] and in data set [4] were 51 nM, 66 nM and greater than 10000 nM, respectively.
For the compound `O=C(Nc1cccc2cccnc12)c1ncccc1OCc1ccccc1` [Compound 47, 3-benzyloxypyridine-2-carboxylic acid quinolin-8-ylamide], the CC50 is 280 nM in data set [1] (setting [5]) and 400 nM in data set [2] (setting [6]). Besides, the CC50 at 6 days in data set [3] was greater than 10000 nM.
As to `CN(C)CCCOc1cccnc1C(=O)Nc1cccc2cccnc12` [Compound 49], the CC50 was 1700 nM in data set [1] (setting [7]), 2500 nM in data set [2] (setting [8]) and greater than 10000 nM in data set [4].
With `Cc1cccnc1C(=O)Nc1ccc(N2CCOCC2)c2cccnc12` [Compound 50], the values for the CC50 in data set [1] (setting [5]) and in data set [2] (setting [6]) were 110 nM and 74 nM, respectively. The same compound returned a CC50 at 6 days in data set [3] greater than 10000 nM.
For `O=C(Nc1ccc(N2CCOCC2)c2cccnc12)c1cc(Cl)ccn1` [Compound 51], the CC50 in data set [1] (setting [5]) came out at 220 nM; in data set [2] (setting [6]), 230 nM. In data set [3], this compound showed a CC50 at 6 days greater than 10000 nM.
Take `COc1cc(NC(=O)c2cc(Cl)ccn2)c2ncccc2c1` [Compound 52]: the CC50 in data set [1] (setting [5]) came to 93 nM; in data set [2] (setting [6]), 85 nM. The same compound gave a CC50 at 6 days in data set [3] greater than 10000 nM.
On to `COc1cc(NC(=O)c2cc(N3CCOCC3)ccn2)c2ncccc2c1` [Compound 53], for which the CC50 in data set [1] (setting [5]) was determined as 30 nM; in data set [2] (setting [6]) it was 28 nM. In data set [3], the CC50 at 6 days is greater than 10000 nM.
In the case of `COc1cc(NC(=O)c2cc(N3CCN(C)CC3)ccn2)c2ncccc2c1` [Compound 54], the CC50 is 15 nM in data set [1] (setting [7]), 20 nM in data set [2] (setting [8]) and greater than 10000 nM in data set [4].
In the case of `CN(C)CC(=O)Nc1cccc2cccnc12` [Compound 55, 2-dimethylamino-N-quinolin-8-yl-acetamide], the CC50 in data set [1] (setting [5]) turned out to be 630 nM; in data set [2] (setting [6]), 590 nM. Besides, the CC50 at 6 days in data set [3] was greater than 10000 nM.
Regarding `O=C(CN1CCCC1)Nc1cccc2cccnc12` [Compound 56], the CC50 was 1300 nM in data set [1] (setting [5]) and 1400 nM in data set [2] (setting [6]). The compound further returned a CC50 at 6 days in data set [3] greater than 10000 nM.
For `O=C(Nc1cccc2cccnc12)[C@@H]1CCCN1` [Compound 57, (S)-pyrrolidine-2-carboxylic acid quinolin-8-ylamide], in that order: 1300 nM, 1200 nM and greater than 10000 nM.
Consider `CN1CCC[C@H]1C(=O)Nc1cccc2cccnc12` [Compound 58, (S)-1-methyl-pyrrolidine-2-carboxylic acid quinolin-8-ylamide], for which the CC50 in data set [1] (setting [7]) was 190 nM; in data set [2] (setting [8]), 170 nM; in data set [4], greater than 10000 nM.
Consider `CN(C)[C@@H](Cc1ccccc1)C(=O)Nc1cccc2cccnc12` [Compound 59], for which the CC50 turned out to be 1200 nM in data set [1] (setting [5]) and 1100 nM in data set [2] (setting [6]). Further, the CC50 at 6 days in data set [3] is greater than 10000 nM.
For `C[C@@H](C(=O)Nc1cccc2cccnc12)N(C)C` [Compound 60], in that order: 730 nM, 520 nM and greater than 10000 nM.
`O=C(Nc1cccc2cccnc12)[C@@H]1CCCN1CC1CC1` [Compound 61]: the CC50 in data set [1] (setting [5]) and in data set [2] (setting [6]) was 1500 nM in each case. Also, the CC50 at 6 days in data set [3] is greater than 10000 nM.
For `CCCN1CCC[C@H]1C(=O)Nc1cccc2cccnc12` [Compound 62], the CC50 in data set [1] (setting [5]) came out at 1300 nM; in data set [2] (setting [6]), 1200 nM. The compound also registered a CC50 at 6 days in data set [3] greater than 10000 nM.
For `CC(C)CN1CCC[C@H]1C(=O)Nc1cccc2cccnc12` [Compound 63], the figures for the CC50 in data set [1] (setting [5]) and in data set [2] (setting [6]) were 5500 nM and 4400 nM, respectively. For the same compound, the CC50 at 6 days in data set [3] was greater than 10000 nM.
In the case of `COc1cc(NS(=O)(=O)c2ccccn2)c2ncccc2c1` [Compound 72], the CC50 was 170 nM in data set [1], 240 nM in data set [2] and greater than 10000 nM in data set [4].
Consider `O=S(=O)(Nc1cc(Cl)c(Cl)c2cccnc12)c1ccccn1` [Compound 73], for which the CC50 is 1100 nM in data set [1], 1000 nM in data set [2] and greater than 10000 nM in data set [4].
Consider `Cc1ccc(NS(=O)(=O)c2ccccn2)c2ncccc12` [Compound 74], for which the CC50 in data set [1] is 120 nM; in data set [2] it was 110 nM; in data set [4] it was greater than 10000 nM.
As to `O=C(Nc1cccc2nccnc12)c1ccccn1` [Compound 77], the CC50 was 170 nM in data set [1] (setting [7]), 180 nM in data set [2] (setting [8]) and greater than 10000 nM in data set [4].
As for `O=C(Nc1ccccc1N1CCCC1)c1ccccn1` [Compound 79], the CC50 is 8000 nM in data set [1], 6500 nM in data set [2] and greater than 10000 nM in data set [4].
The like results for `CN(C)c1ccccc1NC(=O)c1ccccn1` [Compound 80] were, in that order, 770 nM, 830 nM and greater than 10000 nM.
Regarding `CCN(C)c1ccccc1NC(=O)c1ccccn1` [Compound 81], the results for the CC50 in data set [1], in data set [2] and in data set [4] were 620 nM, 500 nM and greater than 10000 nM, respectively.
As to `CCCN(C)c1ccccc1NC(=O)c1ccccn1` [Compound 82], the CC50 in data set [1] is 2000 nM; in data set [2], 1300 nM; in data set [4] it was greater than 10000 nM.
In the case of `CC(C)N(C)c1ccccc1NC(=O)c1ccccn1` [Compound 83], the values for the CC50 in data set [1], in data set [2] and in data set [4] were 9600 nM, 6500 nM and greater than 10000 nM, respectively.
For the compound `CCN(CC)c1ccccc1NC(=O)c1ccccn1` [Compound 84], the CC50 in data set [1] was 1600 nM; in data set [2], 1500 nM; in data set [4], greater than 10000 nM.
Consider `CN(C)c1c(NC(=O)c2ccccn2)ccc(Cl)c1Cl` [Compound 91], for which the CC50 in data set [1] is 3500 nM; in data set [2], 2400 nM; in data set [4] it was greater than 10000 nM.
The like results for `CCN(C)c1c(NC(=O)c2ccccn2)ccc(Cl)c1Cl` [Compound 92] were, in that order, 8200 nM, 7900 nM and greater than 10000 nM.
Regarding `CN1CCN(c2ccnc(C(=O)Nc3cccc4cccnc34)c2)CC1` [Compound 100, 4-(4-methylpiperazin-1-yl)pyridine-2-carboxylic acid quinolin-8-ylamide trifluoroacetate salt], the CC50 came to 18 nM in data set [1] (setting [5]), 19 nM in data set [2] (setting [6]) and 2900 nM in data set [4] (trifluoroacetate salt).
Take `CN1CCN(c2ccnc(C(=O)Nc3cccc4cccnc34)c2)CC1` [Compound 101]: the CC50 in data set [1] (setting [7]) is 15 nM; in data set [2] (setting [8]) it was 14 nM; in data set [4], greater than 10000 nM.
On to `CN1CCC[C@H]1C(=O)Nc1cccc2cccnc12` [Compound 108, (S)-1-methyl-pyrrolidine-2-carboxylic acid quinolin-8-ylamide L-tartrate salt], for which the CC50 is 290 nM in data set [1] (VEGF 165 10 ng/mL, 6 days, Alamar blue, L-tartrate salt, read-out: VEGF LC50); 220 nM in data set [2] (b-FGF 2.5 ng/mL, 6 days, Alamar blue, L-tartrate salt, read-out: b-FGF LC50); greater than 10000 nM in data set [4].
